Experimental data as given in patent publication US6852696B2, “Inhibitors of glycosaminoglycans” (The University of Texas System, priority 1999, dated 2005).

Experiments:
[1] = tested on: XS52 DC and HDK-1 T cells; assay: Cytokine secretion in XS52 DC / HDK-1 T cell / KLH co-culture (ELISA); type: cell-based; conditions: 500 μg/ml; dose-dependent
Method: (§1) FIGS. 7A-C. Impact of tetrameric LIP on cytokine production during antigen presentation. (FIG. 7A) XS52 DC (0.2×10^6 cells/well) were cultured in the presence or absence of the KLH-reactive CD4^+ Thl clone HDK-1 (0.2×10^6 cells/well) and/or KLH (100 μg/ml). Culture supernatants collected at 24 hrs were examined for the indicated cytokines by ELISA. Data shown are the means+/−s.e.m. from triplicate samples. (FIG. 7B) XS52 DC and HDK-1 T cells were co-cultured with KLH in the presence of the indicated concentrations of Pep-1. Culture supernatants collected at 24 hrs were examined for the indicated cytokines by ELISA. (FIG. 7C) CD4^+ T cells isolated from DO11.10 transgenic mice (5×10^4 cells/well) were co-cultured with the indicated numbers of splenic DC isolated from BALB/c mice and the OVA peptide (2 μg/ml) in the presence of 500 μg/ml of Pep-1 (open circles), RP (triangles), or DMSO alone (closed circles). Co-cultures of CD4^+ T cells and DC in the absence of OVA peptide served as a control (square). All the cultures were examined for ^3H-thymidine uptake on Day 3. Data shown are the means+/−s.d. from triplicate samples.
During antigen-specific interaction DC delivers activation signals to T cells, leading to differentiation and clonal expansion of antigen-reactive T cells. At the same time, T cells deliver signals back to DC, leading to “terminal maturation” of DC^80. To test the potential impact of Pep-1 on this bi-directional DC-T cell interaction, the present inventors employed a fully characterized in vitro experimental system in which XS52 DC are cultured with a KLH-reactive CD4^+ Th1 clone HDK-1 in the presence of antigen (KLH)^81-85.

DO11.10 T cells = assay: DO11.10 T cell proliferation triggered by splenic DC and OVA peptide (3H-thymidine uptake); type: cell-based, mice
Method: as §1, with “Data shown are the means+/−s.d. from triplicate samples.” left out
FIGS. 9A-G. DC-associated HA and DC-dependent T cell proliferation. […] Statistically significant differences assessed by a two-tailed Student's t-test for comparing two groups or by analysis of variance (ANOVA) followed by LSD for multiple comparisons are indicated by asterisks (*P<0.05, **P<0.01). […]

Langerhans cells (LC) = assay: Hapten (DNFB)-triggered LC emigration from the epidermis; type: in vivo, BALB/c mice; conditions: two local injections before DNFB
Method: FIG. 3. Impact of multimeric Pep-1 derivatives on hapten-induced LC migration. BALB/c mice received two local injections of the indicated Pep-1 derivatives in the right ear (closed circles) and the indicated RP derivatives in the left ear 24 and 3 hours before topical application of 0.5% DNFB on both ears. All the peptides were administered at the identical dose in terms of the molarity ([…]) of the 16-mer Pep-1 peptide sequence, i.e., 40 μg/injection/ear for monomeric Pep-1 and RP, […] for dimeric Pep-1 and RP, or 160 μg/injection/ear for PEG-conjugated tetrameric Pep-1 and RP. Ear skin samples were harvested at the indicated time points after DNFB painting and examined for surface densities of IA^+ LC. Data shown are the means+/−s.e.m.(n=3) of % LC emigration as calculated by dividing from the formula: [(LC number before DNFB application−LC number after DNFB application)/LC number before DNFB application]×100. Asterisks indicate statistically significant differences between the Pep-1 and the RP panels (**p<0.01 by two-tailed Student's t-test).
Pep-1 and its dimeric and tetrameric derivatives were compared for their in vivo activities to prevent hapten-triggered LC emigration from the epidermis.

## GAHWQFNALTVR [Pep-1]
[1]
  inhibition of IL-6 secretion: almost complete inhibition
  inhibition of TNFα secretion: almost complete inhibition
  inhibition of interferon-γ secretion: almost complete inhibition
DO11.10 T cells; 300 μM (FIG. 9B)
  inhibition of DC-dependent, antigen-specific T cell proliferation: inhibited
DO11.10 T cells; 500 μg/ml (FIG. 7C)
  inhibition of activation of naive CD4+ T cells by splenic DC: inhibited the activation of immunologically naive CD4+ T cells
Langerhans cells (LC); 24 hr after DNFB application
  inhibition of LC emigration: inhibited LC emigration almost completely
Langerhans cells (LC); 48 hr after DNFB application
  inhibition of LC emigration: kinetics comparable to those observed in the control group receiving random peptide (RP) injections
Langerhans cells (LC); 72 hr after DNFB application
  inhibition of LC emigration: kinetics comparable to those observed in the control group receiving random peptide (RP) injections
